The text below walks through data of article PMC10049354, “Anti-Inflammatory Effects and Photo- and Neuro-Protective Properties of BIO203, a New Amide Conjugate of Norbixin, in Development for the Treatment of Age-Related Macular Degeneration (AMD)” (International Journal of Molecular Sciences, 2023).

For one data set, the system named is VEGF. In words: VEGF mRNA expression induced by A2E (quantitative RT-PCR). Format: cell-based, pig. As to conditions: BIO203 20 mM (so in the source); A2E 20 μM; porcine RPE cells; p < 0.001. On the procedure: RPE cells were obtained from pig eyes, as previously described. RPE cells were seeded on a 96-well plate at a density of 1.5 × 10^5 cells/cm^2 in DMEM 2% FCS. BIO201, BIO203, or its pure enantiomers were added in increasing concentrations to the culture medium 48 h before illumination. A2E was added to the medium at a final concentration of 30 μM, and 19 h later, blue-light illumination was performed for 50 min using a 96 blue-led device (Durand, St Clair de la Tour, France) emitting at 470 nm (1440 mcd, 8.6 mA). Just before illumination, the culture medium was replaced by a modified DMEM without any photosensitizer and with 2% FCS. Twenty-four hours after blue-light irradiation, all cell nuclei were stained with Hoechst 33342, and nuclei of dead cells with ethidium homodimer 2, fixed with paraformaldehyde (4% in PBS, 10 min) and 9 pictures per well were captured using a fluorescence microscope (Nikon TiE) equipped with a CoolSNAP HQ2 camera and driven by Metamorph Premier On-Line program. Quantification of live cells was performed using Metamorph Premier Off-Line and a homemade program by subtraction of dead cells from all cells. For cytokines mRNA analysis, RPE cells were seeded in 24-well plates and left untreated or treated with A2E or BIO203 alone or A2E plus BIO203. […]

In a further data set the test system is Abca4−/− Rdh8−/− mice. In words: ERG after 6 months of oral complementation in Abca4−/− Rdh8−/− mice. Format: in vivo, mouse. On the procedure:
The ERG in rats was performed using the electrophysiological system RETI-animal® from Roland Consult. ERG was recorded on both eyes from overnight dark-adapted animals. Rats were anesthetized by an intramuscular injection of a mix of Rompun® (xylazine)/Imalgene® (ketamine) before ERG measurement. Ten to fifteen minutes before measurement, one drop of Mydriaticum® (0.5% tropicamide) was instilled for pupillary dilatation. The A-wave and B-wave implicit times (ms) and amplitudes (µV) were measured for each ERG. The B-wave amplitude (value and %) was given as informative data. ERG parameters: Ganzfeld Q450C, Color: white maximum, Maximum intensity: 3 cd/m^2 (0 dB); Duration 0.24 ms; number of flashes: 1, Filter: 50 Hz, Impedance threshold: 50 kΩ. For scotopic ERGs, the A-wave amplitudes were measured from the baseline to the peak of the negative potential, whereas B-wave amplitudes were measured from the trough of the A-wave to the peak of the positive potential. The recordings obtained from these analyses were tabulated and normalized (%) for each eye. Group means, standard deviation, and median values were calculated, considering each eye from one animal as a separate value. ERG recordings in mice were performed as previously described.
A custom rodent diet was formulated and irradiated (25 kGy) by Envigo RMS SARL (Gannat, France). Low dose (LD)-BIO203 (50 μg/g) and high dose (HD)-BIO203 (500 μg/g) were incorporated into Teklad Custom Research Diet 2016© pellets. The pellets were stored at −20 °C until use and were administered ad libitum as the standard Teklad Global Rodent Diet 2016© used for the control group. The concentration of BIO203 in the customized pellets at the end of each batch was determined by HPLC MS/MS. The mean concentration was 46 μg/g ± 3.5 μg/g of pellet for the LD and 464 μg/g ± 24.3 μg/g of pellet for the HD. We calculated that in the LD group, male mice weighing 31.63 g after 2 months of complementation consumed 4.16 g of pellets, and in the HD group, male mice weighing 34.11 g after 2 months of complementation consumed 4.11 g of pellets every day, which correspond to a daily dose of 6.04 ± 0.46 mg/kg for the LD-BIO203 pellets and 55.91 ± 2.93 mg/kg for the HD-BIO203 pellets.
To test the preventive/curative action of oral administration of BIO203 against retinal neurodegeneration, a total of 27 Pigmented Abca4^−/− Rdh8^−/− mice carrying the Rpe65-Leu450 mutation and the rd8 mutation in the Crb1 gene from Case Western Reserve University of eleven to twelve months of age were used. […] After 6 months of complementation, ERG was measured in both eyes. […] In each group, half of the eyes were removed for A2E and BIO203 measurements, and half of the eyes were used for histological analyses and photoreceptor layer quantification.

Structures are written as SMILES.

In the case of `COC1CCCN(C(=O)/C=C/C(C)=C/C=C/C(C)=C/C=C/C=C(C)/C=C/C=C(C)\C=C\C(=O)O)C1` (centres unmarked) [BIO203], in the data set with VEGF, the “change of VEGF mRNA expression induced by A2E” value is recorded as −84.8%. In the data set with Abca4−/− Rdh8−/− mice (HD pellets), the “photopic B wave ERG compared with control pellets” value is given as “no significant difference”. In addition, the “scotopic A wave ERG compared with control pellets” value with Abca4−/− Rdh8−/− mice (HD pellets, flash intensities 1 and 10 cd.s/m^2, p < 0.05) is recorded as “significantly superior”. In the data set with Abca4−/− Rdh8−/− mice (HD pellets, flash intensity 30 cd.s/m^2, p < 0.05), the “scotopic B wave ERG compared with control pellets” value is on record as “reduced the loss”. Moreover, the “effect on the visual function (ERG)” value with Abca4−/− Rdh8−/− mice (LD pellets) is listed as “No effect”.
